Assay: gradient 5% acetonitrile 3 min, to 50% in 2 min, to 85% in 15 min, held 3 min, 100 µL/min
Details: column: Zorbax Extend-C18 2.1 x 50 mm; eluents: water / acetonitrile, 0.1% formic acid
How it was run: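 Retention times of pure standards were taken from adduct peaks that were selected by computer and manually inspected. Over 3 months, mixtures of ~100 molecules were run by HPLC–quadrupole time-of-flight mass spectrometry in positive and negative ionization mode. The Zorbax Extend-C18 column (2.1 × 50 mm, 1.8 μm) ran at 100 μL/min in water and acetonitrile, each containing 0.1% formic acid, with 40 μL dead volume and 900 μL dwell volume.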

An RP-LC retention time of 722 s was found for O=C(N[C@H]1C[C@@H]2C[C@H]1CN2S(=O)(=O)c1cccc2nsnc12)c1ccccc1 in this work.

An RP-LC retention time of 1190 s was found for CC(C)(C)c1ccc(C(=O)NC2(c3nc(-c4ccncc4)no3)CCCCC2)cc1 in this work.

An RP-LC retention time of 672 s was found for Cn1cc(-c2ccncc2)cc1C(=O)NCc1ccccc1C(F)(F)F in this work.

An RP-LC retention time of 720 s was found for COc1ccc(NC(=O)Cn2nc3c(N4CCSCC4)nccn3c2=O)cc1OC in this work.

An RP-LC retention time of 780 s was found for CCCNC(=O)c1cn(-c2cc(-c3nc(CC)no3)ccn2)cn1 in this work.

An RP-LC retention time of 555 s was found for CN(C)c1ccc(CNC(=O)C2CCN(c3cncnc3N3CCCC3)CC2)cc1 in this work.

An RP-LC retention time of 1080 s was found for COc1ccccc1N1CCN(c2cc(SCC(=O)Nc3ccc(Cl)cc3)ncn2)CC1 in this work.

An RP-LC retention time of 624 s was found for O=C(NCCn1c(-c2ccncc2)nc2cccnc21)Nc1ccccc1Cl in this work.

An RP-LC retention time of 602 s was found for CC(C)n1c(N2CCN(C(=O)c3cccnc3)CC2)cc(=O)n(C(C)C)c1=O in this work.

An RP-LC retention time of 692 s was found for CN1C(=O)Cc2cc(C(=O)NC3CCCCC3)ccc21 in this work.

An RP-LC retention time of 618 s was found for Cc1cnc(C(=O)N(C)C2CCc3nn(CC4CC4)c(=O)n3CC2)cn1 (stereo not given) in this work.

An RP-LC retention time of 817 s was found for O=C(/C=C/c1cccnc1)c1ccccc1O in this work.

An RP-LC retention time of 927 s was found for Cc1cc(S(=O)(=O)NCC2CCN(C(=O)NC(C)(C)C)CC2)c(Cl)cc1Cl in this work.

An RP-LC retention time of 678 s was found for COc1ccc(-c2cn3c(CCC(=O)Nc4ccc5c(c4)OCCO5)csc3n2)cc1 in this work.

An RP-LC retention time of 892 s was found for Cc1ccc(Cl)cc1NC(=O)C1CCCN1S(=O)(=O)c1cc2c(cc1C)NC(=O)C(C)O2 (stereo not given) in this work.

An RP-LC retention time of 912 s was found for Cc1nn(-c2ccccc2)c(C)c1S(=O)(=O)N1CCC(C(=O)N2CCCCCC2)CC1 in this work.

An RP-LC retention time of 680 s was found for CCN1CCCCc2cc(C(=O)NCCC3CCN(C(C)C)CC3)sc21 in this work.

An RP-LC retention time of 616 s was found for COc1cc(S(N)(=O)=O)c(OC)cc1N in this work.

An RP-LC retention time of 734 s was found for COc1ccc2[nH]cc(CCNC(=O)CN3C(=O)c4cccnc4Sc4ccccc43)c2c1 in this work.

An RP-LC retention time of 784 s was found for Cc1ccc(CNC(=O)Nc2cccc(-c3ccc(N4CCC(C)CC4)nn3)c2)cc1 in this work.

An RP-LC retention time of 966 s was found for CCCN1C(=O)C(C)(C(=O)Nc2ccc(OCC)cc2)Oc2cccnc21 (stereo not given) in this work.

An RP-LC retention time of 921 s was found for CN1C(=O)c2cccc3c(C(=O)c4ccccc4)ccc(c23)C1=O in this work.

An RP-LC retention time of 856 s was found for CCOc1ccccc1-n1ccn(Cc2nc(-c3cccc(OC)c3)no2)c(=O)c1=O in this work.

An RP-LC retention time of 588 s was found for COc1ccc(-n2c(N)cc(=O)nc2SCC(=O)Nc2cc(C)on2)cc1 in this work.

An RP-LC retention time of 1030 s was found for CCc1nc2cc(-c3noc(Cc4ccsc4)n3)ccc2o1 in this work.

An RP-LC retention time of 1040 s was found for COCCNC(=O)c1cc2occc2c(Nc2ccc(Br)c(C)c2)n1 in this work.

An RP-LC retention time of 631 s was found for O=C([C@@H]1C[C@H](F)CN1C(=O)NCc1ccco1)N1CCCCC1 in this work.

An RP-LC retention time of 825 s was found for Cc1nc(-c2ccc(N3CCN(C(=O)c4cccc(C#N)c4)CC3)nc2)sc1C in this work.

An RP-LC retention time of 1270 s was found for Cc1cc(C)c(S(=O)(=O)N2CCCC2c2nc(-c3cccc(F)c3)no2)c(C)c1 (stereo not given) in this work.

An RP-LC retention time of 651 s was found for CC1OC(Oc2c(-c3cc(O)c(O)c(O)c3)oc3cc(O)cc(O)c3c2=O)C(O)C(O)C1O (stereo not given) in this work.

An RP-LC retention time of 593 s was found for COc1cccc(CNC(=O)N2CCN(Cc3c(C)noc3C)CC2)c1 in this work.

An RP-LC retention time of 838 s was found for CC(C)CN1CCn2cc(S(=O)(=O)NCc3ccc(F)cc3Cl)cc2C1=O in this work.

An RP-LC retention time of 632 s was found for COC(=O)c1c(C)[nH]c(C(=O)N2CCC(CC(=O)NCC3CCCO3)CC2)c1C (stereo not given) in this work.

An RP-LC retention time of 748 s was found for CCCCNC(=O)C1CCN(C(=O)CCc2c(C)[nH]c(C(=O)OCC)c2C)CC1 in this work.

An RP-LC retention time of 791 s was found for Cc1ccc(NC(=O)Cn2nc3cc(C)nc(N4CCCC4)n3c2=O)c(C)c1 in this work.

An RP-LC retention time of 981 s was found for CCC(C)NC(=O)c1cc(-c2ccc(F)cc2)cn1C (stereo not given) in this work.

An RP-LC retention time of 765 s was found for Cc1cccc(NC(=O)CN2C(=O)NC3(CCCCC3)C2=O)c1C in this work.

An RP-LC retention time of 547 s was found for CCCN(C)CC1(O)CCC2(CCN(Cc3ccc(F)cc3)CC2)CC1 in this work.

An RP-LC retention time of 717 s was found for Cc1ccccc1NC(=O)C1CC(=O)N(c2ccc3c(c2)CCN3C(=O)C2CC2)C1 (stereo not given) in this work.

An RP-LC retention time of 706 s was found for COCc1c(C(=O)O)nnn1-c1ccc(OC)c(Cl)c1 in this work.

An RP-LC retention time of 949 s was found for Cc1ccc(Cl)cc1NC(=O)c1[nH]c(C)c(S(=O)(=O)N2CCCC2)c1C in this work.

An RP-LC retention time of 816 s was found for Cc1cc(C)cc(NC(=O)C2CCN(C(=O)c3ncn4c3COC(c3ccc(F)cc3)C4)CC2)c1 (stereo not given) in this work.

An RP-LC retention time of 1080 s was found for O=C(NC1CCCC1)c1cc2sccc2n1Cc1ccc(F)cc1 in this work.

An RP-LC retention time of 1000 s was found for O=S(=O)(c1cccc2nsnc12)N1CCc2nc(-c3ccccc3)ncc2C1 in this work.

An RP-LC retention time of 659 s was found for CCN1CCC(N(Cc2ccc3c(c2)OCO3)C(=O)Nc2ccc(OC)cc2OC)CC1 in this work.

An RP-LC retention time of 1010 s was found for Cc1ccc(CNC(=O)C2CCCN(c3nc4ccsc4c(=O)n3Cc3ccc(F)cc3)C2)cc1 (stereo not given) in this work.

An RP-LC retention time of 911 s was found for Cc1ccc(CCNC(=O)C2CCCN(C(=O)c3cc4sccc4n3C)C2)cc1 (stereo not given) in this work.

An RP-LC retention time of 738 s was found for O=S(=O)(c1ccccc1F)N1CC(F)(F)C[C@H]1CN1CCc2ccccc2C1 in this work.

An RP-LC retention time of 643 s was found for CCOC(=O)N1CCN(C(=O)CN2C(=O)c3ccccc3S2(=O)=O)CC1 in this work.

An RP-LC retention time of 1260 s was found for CCOc1ccc(-c2cc3c(=O)n(Cc4nc(-c5ccc(C)c(C)c5)no4)ncn3n2)cc1 in this work.

An RP-LC retention time of 824 s was found for Cc1ccc(CN2CCc3nc(N4CCN(c5ccccc5F)CC4)ncc3C2)cc1 in this work.

An RP-LC retention time of 978 s was found for Cc1cc(C)c(S(=O)(=O)N2CC(c3nc(-c4ccncc4)no3)C2)c(C)c1 in this work.

An RP-LC retention time of 919 s was found for COc1ccc(OC)c(CCNC(=O)c2c(N3CCCC3=O)c3cc(F)ccc3n2C)c1 in this work.

An RP-LC retention time of 765 s was found for CN(C)c1nccnc1OC1CCN(C(=O)C2CCCCC2)C1 (stereo not given) in this work.

An RP-LC retention time of 1060 s was found for Cc1oc2ccn(Cc3cccc(F)c3)c(=O)c2c1C(=O)NCc1ccccc1F in this work.

An RP-LC retention time of 1380 s was found for CCOC(=O)c1c(C)oc2nc(C)nc(NCCc3ccc(Cl)cc3)c12 in this work.

An RP-LC retention time of 628 s was found for O=C(Nc1ccc2ncnc(N3CCCC3)c2c1)C1CCC1 in this work.

An RP-LC retention time of 700 s was found for CCCCCn1c(CN(C)C(=O)c2ccco2)nc2ccccc21 in this work.

An RP-LC retention time of 720 s was found for CN1CCn2cc(S(=O)(=O)Nc3ccc(Cl)cc3)cc2C1=O in this work.

An RP-LC retention time of 710 s was found for CC1=CC2(C)NC(=O)C(C)C12 (stereo not given) in this work.

An RP-LC retention time of 610 s was found for Cn1c(NCCN(CCO)CCCc2ccc([N+](=O)[O-])cc2)cc(=O)n(C)c1=O in this work.

An RP-LC retention time of 992 s was found for COc1ccc(NC(=O)c2nnc(CCCC(=O)NCCc3c[nH]c4ccc(C)cc34)s2)cc1 in this work.

An RP-LC retention time of 911 s was found for Cc1ccc(NS(=O)(=O)c2cc3c(s2)CCN(C(=O)C2CCC2)C3)cc1F in this work.

An RP-LC retention time of 910 s was found for CCCCNC(=O)Cn1c2ccccc2c2ncn(Cc3nc(-c4ccccc4)no3)c(=O)c21 in this work.

An RP-LC retention time of 596 s was found for CCOc1ccc(S(=O)(=O)Nc2ccc3nc(N4CCN(C)CC4)cc(C(=O)O)c3c2)cc1 in this work.

An RP-LC retention time of 596 s was found for O=C(c1ccnc(N2CCNC(c3ccccc3)C2)c1)N1CCCN(c2ncccn2)CC1 (stereo not given) in this work.

An RP-LC retention time of 758 s was found for COc1cccc(CC(=O)N2CCC3(CC2)NC(=O)c2cc(F)ccc2N3C)c1 in this work.

An RP-LC retention time of 970 s was found for CCOc1cc(=O)n2c(c1C(=O)OCc1ccc(Cl)cc1)CCCC2 in this work.

An RP-LC retention time of 903 s was found for CCN(Cc1ccccc1)C(=O)C(=O)c1c[nH]c2ccccc12 in this work.

An RP-LC retention time of 590 s was found for CN(C)CCn1cc(C(=O)NCc2ccco2)ccc1=O in this work.

An RP-LC retention time of 912 s was found for CCN1C(=O)c2cccnc2Sc2cc(NC(=O)c3cccc(Cl)c3)ccc21 in this work.

An RP-LC retention time of 720 s was found for Nc1nc(-c2nn(Cc3ccccc3F)c3ncccc23)ncc1C1CC1 in this work.

An RP-LC retention time of 582 s was found for CNc1nc(N2CCOCC2)nc2ccccc12 in this work.

An RP-LC retention time of 697 s was found for O=C(NC1CCCC1)N1CCC[C@H]1c1nc(-c2ccccc2)n[nH]1 in this work.

An RP-LC retention time of 605 s was found for Cc1ccc(NC(=O)N2CC(N(C)Cc3cccnc3)C2)cc1C in this work.

An RP-LC retention time of 660 s was found for CCn1c(C(=O)NCCCN2CCCC(C)C2)c(N2CCCC2=O)c2cc(F)ccc21 (stereo not given) in this work.

An RP-LC retention time of 837 s was found for O=C(c1cc(C2CC2)[nH]n1)N1CCN(c2ccc(Cl)cc2)CC1 in this work.

An RP-LC retention time of 1060 s was found for CCc1nc2cc(-c3noc(COc4ccccc4)n3)ccc2o1 in this work.

An RP-LC retention time of 1030 s was found for CCCN1C(=O)CCc2cc(NS(=O)(=O)c3ccc(CC(C)C)cc3)ccc21 in this work.

An RP-LC retention time of 641 s was found for COCC1CN(S(=O)(=O)c2cc(F)ccc2C)CC12CCNCC2 (stereo not given) in this work.

An RP-LC retention time of 655 s was found for CSc1ccc(CNC(=O)c2cc(-c3ccncc3)cn2C)cc1 in this work.

An RP-LC retention time of 606 s was found for Cc1cc2c(cc1S(=O)(=O)N1CCN(c3ccccn3)CC1)n(C)c(=O)n2C in this work.

An RP-LC retention time of 956 s was found for Cc1ccc(S(=O)(=O)N2CCCC(CCC(=O)NC3CCCCC3)C2)cc1 (stereo not given) in this work.

An RP-LC retention time of 575 s was found for CS(=O)(=O)N1C[C@H]2CCN(Cc3cccc(F)c3F)C[C@H]21 in this work.

An RP-LC retention time of 652 s was found for Cc1nc2cc(-c3ccccc3)nn2c(C)c1CCC(=O)N1CCN(c2ccccn2)CC1 in this work.

An RP-LC retention time of 747 s was found for Cc1ccc(Cn2c(CN3CCC(C(=O)NC(C)C)CC3)cc3ccccc32)cc1 in this work.

An RP-LC retention time of 903 s was found for CCn1c(=O)oc2cc(-c3noc(-c4ccnn4C)n3)ccc21 in this work.

An RP-LC retention time of 1010 s was found for CCc1ccccc1NC(=O)C1(C)Oc2cccnc2N(C(C)C)C1=O (stereo not given) in this work.

An RP-LC retention time of 777 s was found for CCC(C(=O)NCc1ccco1)n1c2ccccc2c2cnn(C)c(=O)c21 (stereo not given) in this work.

An RP-LC retention time of 859 s was found for CSc1ccc(CNC(=O)Cn2c(=O)cc(-c3nc(C)no3)c3ccccc32)cc1 in this work.

Source: the METLIN SMRT retention time set (Domingo-Almenara et al. 2019)
